Measured values as given in the NIST ThermoML archive (doi:10.1016/j.fluid.2015.12.029).
Numbers after ± are expanded uncertainties.

How the values were obtained:
[1] = Liquid; for mass density: 298.15 K, 101.33 kPa, Vibrating tube method; for vapor or sublimation pressure: Ebulliometric method (Recirculating still)
[2] = Boiling temperature at pressure P; details: Liquid, Ebulliometric method (Recirculating still)

CO [methanol]
Details | mass density [kg/m3]
[1] | 786.56 ± 0.12

Details | Boiling temperature at pressure P [°C] | vapor or sublimation pressure [kPa]
[1], 315.49 K | – | 40 ± 0.22
[1], 321.98 K | – | 53.33 ± 0.32
[1], 327.23 K | – | 66.66 ± 0.4
[1], 331.66 K | – | 79.99 ± 0.48
[1], 335.51 K | – | 93.32 ± 0.56
[1], 337.6 K | – | 101.3 ± 0.61
[2], 40 kPa | 42.34 ± 0.07 | –
[2], 53.33 kPa | 48.83 ± 0.07 | –
[2], 66.66 kPa | 54.08 ± 0.07 | –
[2], 79.99 kPa | 58.51 ± 0.07 | –
[2], 93.32 kPa | 62.36 ± 0.06 | –
[2], 101.3 kPa | 64.5 ± 0.06 | –

CCOC(=O)C(C)O (racemic) [DL-ethyl lactate]
Details | mass density [kg/m3]
[1] | 1028.08 ± 0.1

Details | Boiling temperature at pressure P [°C] | vapor or sublimation pressure [kPa]
[1], 396.91 K | – | 40 ± 0.28
[1], 405.49 K | – | 53.33 ± 0.43
[1], 412.44 K | – | 66.66 ± 0.5
[1], 418.34 K | – | 79.99 ± 0.6
[1], 423.47 K | – | 93.32 ± 0.7
[1], 426.1 K | – | 101.3 ± 0.76
[2], 40 kPa | 123.76 ± 0.08 | –
[2], 53.33 kPa | 132.34 ± 0.08 | –
[2], 66.66 kPa | 139.29 ± 0.07 | –
[2], 79.99 kPa | 145.19 ± 0.07 | –
[2], 93.32 kPa | 150.32 ± 0.07 | –
[2], 101.3 kPa | 153.0 ± 0.07 | –

COC(C)=O [methyl ethanoate]
Details | mass density [kg/m3]
[1] | 927.1 ± 0.07

Details | Boiling temperature at pressure P [°C] | vapor or sublimation pressure [kPa]
[1], 305.65 K | – | 40 ± 0.24
[1], 312.68 K | – | 53.33 ± 0.35
[1], 318.45 K | – | 66.66 ± 0.43
[1], 323.36 K | – | 79.99 ± 0.52
[1], 327.68 K | – | 93.32 ± 0.61
[1], 330.04 K | – | 101.3 ± 0.66
[2], 40 kPa | 32.50 ± 0.08 | –
[2], 53.33 kPa | 39.53 ± 0.07 | –
[2], 66.66 kPa | 45.30 ± 0.07 | –
[2], 79.99 kPa | 50.21 ± 0.07 | –
[2], 93.32 kPa | 54.53 ± 0.07 | –
[2], 101.3 kPa | 56.89 ± 0.07 | –
